From patent US9201062B2, “Predicting toxicity of a compound over a range of concentrations” (CELLOMICS, INC., priority 2011, dated 2015)
Structures can show the parent of a compound that is named as a salt.

Tests used:
[1] = test system: Reactive oxygen species (ROS) levels in cells
Text: Once imaging has been performed, automated image processing algorithms as are known in the art can be used in the imaging system to determine the measurements in the cell images.
The target i being evaluated was the normalized ROS response.
where μ is the mean of the normalized non-hepatotoxic compound values and σ is the standard deviation of the normalized non-hepatotoxic compound values.
As noted above, for ROS, the upper threshold may be all that is needed. […] The difficulty in compound toxicity measurement because of non-unidirectional response and/or because of incorrect EC50/IC50 calculation from a dose-response curve are avoided by establishing toxicity thresholds based on the negative controls and by flagging a compound as toxic only if its response goes beyond the determined thresholds at any concentration.
For each target, the minimal coefficient K of the deviation value from the mean of the non-hepatotoxic compound data can be calculated to include all the non-hepatotoxic compounds values between μ+K×σ and μ−K×σ values. These values are set respectively as the upper and lower toxicity thresholds for the target. As noted above, for each target both or only one of the thresholds can be used.
(§1) The normalized values from the hepatotoxic compounds (or compounds of interest) are compared with the threshold value determined above. The compound toxicity is determined by verifying whether the normalized value of the compound is outside the threshold value(s). […] Cell loss was determined to be toxic if the normalized value was less than the lower threshold value. Reactive oxygen species level was determined to be toxic if the respective normalized value was greater than the upper threshold value.

[2] = peak serum concentration of the drug; cited from earlier work
[3] = test system: rat primary hepatocytes; test: Multiparametric high-content hepatotoxicity prediction assay on rat primary hepatocytes (FIG. 9 decision table); settings: 24 hours drug incubation, over concentration range, targets: cell number, DNA content, GSH, ROS, mitochondrial membrane potential
Text: After drug treatment, the hepatic cells are stained with specific fluorescent materials to detect different cellular targets or properties whose changes are associated with cell health, as is known in the art. For example, in the exemplary embodiments discussed herein, as well as in the test data shown, the following five cellular responses are simultaneously monitored: • 1. Cell number (i.e., cell loss, cell density) • 2. Nuclear DNA content • 3. Reduced glutathione (GSH) levels in cells • 4. Reactive oxygen species (ROS) levels in cells • 5. Mitochondrial membrane potential changes
Otherwise the cell contains a “−”.
This corresponds to the number of target cells corresponding to the compound that contain a “+”.
For maintenance of rat primary hepatocytes, Williams E medium can be used containing the following supplements: 15 mM HEPES, 1% ITS+, 4 mM Glutamax, 0.1 μM dexamethasone, 50 units/ml penicillin and 50 μg/ml streptomycin (Hepatocyte maintenance medium). […]
For each target, the minimal coefficient K of the deviation value from the mean of the non-hepatotoxic compound data can be calculated to include all the non-hepatotoxic compounds values between μ+K×σ and μ−K×σ values. […]
as §1
The images were analyzed, as discussed above, to produce the data shown on FIG. 9. […] After 24 hours of drug incubation, the hepatocytes were stained and imaged on a Thermo Scientific ToxInsight HCS reader. The data for each target were normalized and analyzed based on the threshold calculated from the non-hepatotoxic compounds in the manner discussed above. […]

[4] = test system: HepG2 cells; test: High-content imaging of HepG2 cells stained for nuclei, glutathione, ROS and mitochondria (FIG. 11); format: cell-based; settings: 25 Cmax, 24 hrs
Protocol: For routine culture of HepG2 cells, EMEM medium containing the following supplements can be used: 10% fetal bovine serum, 1 mM sodium pyruvate, 1× non-essential amino acids, 100 units/ml penicillin and 100 μg/ml streptomycin (EMEM complete medium).
Cells can be harvested by trypsinization, diluted into EMEM complete medium and cell density was determined. Cells are diluted to 2.0×10^5 cells/ml in EMEM complete medium. 100 μl of the cell suspension are added per well of the 96-well microplate to achieve 20,000 cells/well.
The cells were then stained with specific fluorescent dyes to detect each cellular target. Cell images were then obtained using the ArrayScan VTi Reader manufactured by Cellomics Inc., a subsidiary of Thermo Fisher Scientific Inc. Representative samples 230 of the cell images obtained during the assay are shown in FIG. 11. […] The images of the cells for the different targets look different for the two drugs; Troglitazone reduces the number of cells and mitochondrial membrane potential but […] reduced glutathione levels in HepG2 cells.

Structure (SMILES)	normalized ROS response relative to upper and lower toxicity thresholds [1]	1 CMax [2]	also measured
CC(=O)Oc1ccccc1C(=O)O [Aspirin]	between the upper and lower thresholds values	0.995 µg/mL	
CN1CCC(=C2c3ccccc3C=Cc3ccccc32)CC1 [Cyproheptadine HCl]		30 µg/mL	
O=C1CN(/N=C/c2ccc(-c3ccc([N+](=O)[O-])cc3)o2)C(O)=N1 [Dantrolene]		1.24 µg/mL	
N#CC(C#N)=NNc1ccc(OC(F)(F)F)cc1 [FCCP]			number of targets flagged as being toxic (of five monitored targets) [3]: Four
CNCCC(Oc1ccc(C(F)(F)F)cc1)c1ccccc1 (stereo not drawn) [Fluoxetine]	between the upper and lower thresholds values	0.015 µg/mL	number of targets flagged as being toxic (of five monitored targets) [3]: none
Cc1ccc(C)c(OCCCC(C)(C)C(=O)O)c1 [Gemfibrozil]		46.4 µg/mL	
CCN(CC)CCNc1ccc(CO)c2sc3ccccc3c(=O)c12 [Hycanthone]	flagged as being toxic		
Cc1cccc(Nc2ccccc2C(=O)O)c1C [Mefenamic Acid]	flagged as being toxic	6.5 µg/mL	
COc1ccc2[nH]cc(CCNC(C)=O)c2c1 [Melatonin]	between the upper and lower thresholds values	0.00557 µg/mL	
CCn1cc(C(=O)O)c(=O)c2ccc(C)nc21 [Nalidixic Acid]		30 µg/mL	
CO[C@@H]1[C@@H](OC(N)=O)[C@@H](O)[C@H](Oc2ccc3c(O)c(NC(=O)c4ccc(O)c(CC=C(C)C)c4)c(=O)oc3c2C)OC1(C)C [Novobiocin]	flagged as being toxic	62.5 µg/mL	number of targets flagged as being toxic (of five monitored targets) [3]: five
CCCCC1C(=O)N(c2ccccc2)N(c2ccccc2)C1=O [Phenylbutazone]		150 µg/mL	
CN(CCOc1ccc(CC2SC(=O)NC2=O)cc1)c1ccccn1 (stereo not drawn) [Rosiglitazone]		0.373 µg/mL	
CN(C)[C@@H]1C(O)=C(C(N)=O)C(=O)[C@@]2(O)C(O)=C3C(=O)c4c(O)cccc4[C@@](C)(O)[C@H]3C[C@@H]12 [Tetracycline]		9.317 µg/mL	
Clc1ccccc1CN1CCc2sccc2C1 [Ticlopidine]		2.13 µg/mL	
O=c1n(CCCN2CCN(c3cccc(Cl)c3)CC2)nc2ccccn12 [Trazodone HCl]		1.88 µg/mL	
Cc1c(C)c2c(c(C)c1O)CCC(C)(COc1ccc(CC3SC(=O)NC3=O)cc1)O2 (stereo not drawn) [Troglitazone]		2.82 µg/mL	mitochondrial membrane potential [4]: reduces; number of cells [4]: reduces; reduced glutathione levels [4]: increases
